Test results taken from US9040501B2, “Compositions and methods for treating cancer” (Eisai Inc., priority 2009, dated 2015).
Like-named read-outs stand apart in the source and are kept apart here. Marks after values point to notes of the source that are not given here.

How the values were obtained:
[1] = Pharmacokinetics in mice after IV and PO administrations; type: in vivo, male BALB-c mice
Experimental: […]. All doses were prepared in phosphate buffered saline (PBS) and were administered at a volume of 5 mL/kg. Five mice per group were used in these studies. Blood samples were taken serially from the tail vein of each mouse at predetermined timepoints. Blood samples from all mice in each group were pooled together prior to processing for plasma. The pooled blood samples were spun down within 30-60 minutes after withdrawal and the plasma was harvested and frozen for assay. After preparation and extraction the samples were assayed by LC/MS/MS.

[2] = Stability in simulated gastric fluid at 37° C. (HPLC); type: physicochemical;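 on % ER-876400 (peak retention time: 1.46 min): percent of total sample signal attributed to the analyte peak at each sampling time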
From the text: […]. See Kararli, T. T. Comparison of the GI anatomy, physiology, and biochemistry of humans and commonly used laboratory animals. BioPharm & DrugDispos. 16:351-380, 1995, which is hereby wholly incorporated by reference. The gastric pH in fasted monkeys has been reported to have a similar range of 1-3. See Kondo, H. et al. Characteristics of the gastric pH profiles of unfed and fed cynomolgus monkeys as pharmaceutical product development subjects. BioPharm & DrugDispos. 24:45-51, 2003, which is hereby wholly incorporated by reference.
Materials: Simulated gastric fluid (SGF) was prepared by mixing the following into 100 mL of HPLC grade (or purified) water: 200 mg of sodium chloride and 1.87 mL of a 37.52% HCl stock solution.
The HPLC analyses were conducted using a Waters UPLC solvent delivery system with Corona CAD detection. The HPLC Column (Waters Atlantis HHS T3 2.1×100 mm, 1.8 um) was maintained at 40° C. and preequilibrated with a solution containing 98% water and 2% acetonitrile. The temperature controlled auto-sampler was maintained at 37° C. The flow rate for the Water/MeCN mobile phase was 0.65 mL/min, with a gradient following sample injection (5 μL) as follows: […]
The Water/MeCN mobile phase was applied to the column with the above described flow rate and gradient and the HPLC chromatograms were collected. After 3.5 minutes, the column was reequilibrated with 98% water/2% MeCN for 1.5 minutes.

cytidine deaminase (CDA) = cytidine deaminase (CDA) (Homo sapiens (Human), UniProt P32320); assay: Effect of ER-876437 on the half-life of decitabine in the presence of CDA in Tris-HCl buffer at 37° C.; type: biochemical; settings: for half-life at 0.2 mM: pH 7.4, Estimated T1/2 of decitabine
Chain of cytidine deaminase (CDA) (P32320 whole entry): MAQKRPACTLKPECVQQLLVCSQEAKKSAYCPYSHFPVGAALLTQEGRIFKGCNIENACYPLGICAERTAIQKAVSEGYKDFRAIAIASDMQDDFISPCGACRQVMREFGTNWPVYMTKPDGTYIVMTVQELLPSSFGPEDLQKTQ
Experimental: The solvent delivery system employed an HPLC quaternary pump, low pressure mixing. An autosampler having a variable loop, 0.1 to 100 μL range and temperature controlled thermostat was used. […] Degassed HPLC grade water and degassed HPLC grade acetonitrile were used as solvents for the mobile phases. […] [table]

murine lymphoma L1210 [3] = settings: for Mean Liver wts (g) ± SD / Mean Spleen wts (g) ± SD: on autopsy; for % ILS (Increased Life Span): vs vehicle group
Experimental: Preparation of L1210 Cells: L1210 ascitic cells were prepared by passaging them in mice at least three times as follows. Each CD2F1 female mouse was intraperitoneally (IP) injected with about 10^5 L1210 ascitic cells. After one week, the mouse was sacrificed (asphyxiation via CO2). The mouse was placed on its back, its belly surface was cleaned with alcohol wipes, and a small incision was made into the peritoneal cavity. […] Diluted ascites (diluted 1:10 again) were counted on a hematocytometer and the number of cells per mL was calculated. About 10^5 L1210 cells were used for a subsequent passage for another mouse passage. Or, a stock of L1210 ascites in BSA solution was diluted to 1×10^4 cells/0.1 ml for use in the study mice.
(§1) The mice were prepared with intravenous (IV) injection of L1210 ascites (prepared as described above) one day prior to commencing the dosing. […] The total IV injection for all mice took about 50 minutes.
Decitabine was prepared fresh twice a day, just prior to dosing. All solutions were stored on ice while dosing. Mice were dosed (intraperitoneally (IP) or per os (orally, PO)) twice a day (8 hours apart) for 4 consecutive days.
(§2) Dead mice were autopsied and observed for the presence of tumors in organs.
Preparation of study mice with IV injection of L1210 ascites took about 60 minutes. […] All solutions were stored on ice while dosing. Mice were dosed (IP or PO) twice a day (7 or 8 hours apart) for 4 consecutive days.

murine lymphoma L1210 [4] = settings: for Mean Survival (days) ± SD: twice a day (8 hours apart), 4 days
Experimental: Or, a stock of L1210 ascites in BSA solution was diluted to 1×10^4 cells/0.1 ml for use in the study mice.
as §1
All solutions were stored on ice while dosing. Mice were dosed (intraperitoneally (IP) or per os (orally, PO)) twice a day (8 hours apart) for 4 consecutive days.
as §2

[5] = male, BALB-c, mouse, plasma, 10 mg/kg IV
[6] = male, BALB-c, mouse, plasma, 10 mg/kg IV, read-out: Plasma concentrations
[7] = male, BALB-c, mouse, plasma, 10 mg/kg PO, read-out: Plasma concentrations
[8] = Veh/decitabine 0.1 mg/kg PO (7 hours apart)
[9] = Veh/decitabine 0.1 mg/kg PO (8 hr.)
[10] = Veh/decitabine 0.1 mg/kg PO, on autopsy

For `O=C1NCC=CCN1[C@@H]1O[C@H](CO)[C@@H](O)[C@H]1O` [ER-876400, (Z)-3,4-dihydro-1-((2R,3R,4S,5R)-tetrahydro-3,4-dihydroxy-5-(hydroxymethyl)furan-2-yl)-1H-1,3-diazepin-2(7H)-one, reference compound], the “AUC0-∞” value ([1]; 10 mg/kg IV) was 20999 ng·h/mL, the “AUC0-∞/D” value ([1]; 10 mg/kg IV) was 2100 ng · hr/mL/D and the AUCExtrap ([1]; 10 mg/kg IV) was 10.3%. The CL ([1]; 10 mg/kg IV) was 8 mL/min/kg, the dose-normalized exposures (AUC0-∞) ([1]; 10 mg/kg IV) was 2100 ng·h/mL per mg/kg and the t1/2 ([1]; 10 mg/kg IV) was 16.1 h. The Plasma concentrations ([1]; 10 mg/kg IV, 2 hr) was 1753 ^a ng/mL, the AUC(0-t) ([1]; 10 mg/kg PO) was 13160 ng·h/mL and the AUC(0-inf) [1, 5] was 21000 ng·h/mL. It also gave a clearance [1, 5] of 8 mL/min/kg, a half-life [1, 5] of 16.1 h and a concentration at 0.167 hr [1, 6] of 19900 ng/mL. For the same compound, the concentration at 0.5 hr [1, 6] was 10200 ng/mL, the concentration at 1 hr [1, 6] was 4210 ng/mL and the concentration at 4 hr [1, 6] was 495 ng/mL. The concentration at 6 hr [1, 6] was 118 ng/mL, the concentration at 8 hr [1, 6] was 59 ng/mL and the concentration at 24 hr [1, 6] was 93 ng/mL. For the same compound, the AUC(0-t) ([1]; male, BALB-c, mouse, plasma, 10 mg/kg IV, read-out: AUC0-t) was 18800 ng·h/mL, the Vd ([1]; male, BALB-c, mouse, plasma, 10 mg/kg IV, read-out: Vss) was 3.2 L/kg and the Cmax ([1]; male, BALB-c, mouse, plasma, 10 mg/kg PO) was 7860 ng/mL. It also gave a bioavailability ([1]; male, BALB-c, mouse, plasma, 10 mg/kg PO vs IV, calculated based on AUC0-t, read-out: F (bioavailability)) of 69.9%, a concentration at 0.167 hr [1, 7] of 7100 ng/mL and a concentration at 0.5 hr [1, 7] of 7860 ng/mL. The concentration at 1 hr [1, 7] was 4660 ng/mL, the concentration at 2 hr ([1]; male, BALB-c, mouse, plasma, 10 mg/kg PO, 2 hr, read-out: Plasma concentrations) was 1750 ng/mL and the concentration at 4 hr [1, 7] was 320 ng/mL. The concentration at 6 hr [1, 7] was 87 ng/mL, the concentration at 8 hr [1, 7] was 44 ng/mL and the concentration at 24 hr [1, 7] was 264 ng/mL. For the same compound, the AUC(0-t) ([1]; male, BALB-c, mouse, plasma, 10 mg/kg PO, read-out: AUC0-t) was 13200 ng·h/mL, the “% ER-876400 (peak retention time: 1.46 min)” value ([2]; SGF at 37° C., analysis time 0:00:30) was 19.59% and the “% ER-876400 (peak retention time: 1.46 min)” value ([2]; SGF at 37° C., analysis time 0:06:08) was 17.04%. The “% ER-876400 (peak retention time: 1.46 min)” value ([2]; SGF at 37° C., analysis time 0:11:45) was 16.72%, the “% ER-876400 (peak retention time: 1.46 min)” value ([2]; SGF at 37° C., analysis time 0:17:23) was 15.17% and the “% ER-876400 (peak retention time: 1.46 min)” value ([2]; SGF at 37° C., analysis time 0:23:01) was 14.20%. For the same compound, the “% ER-876400 (peak retention time: 1.46 min)” value ([2]; SGF at 37° C., analysis time 0:28:38) was 13.23%, the “% ER-876400 (peak retention time: 1.46 min)” value ([2]; SGF at 37° C., analysis time 0:34:16) was 12.51% and the “% ER-876400 (peak retention time: 1.46 min)” value ([2]; SGF at 37° C., analysis time 0:39:54) was 14.05%. The “% ER-876400 (peak retention time: 1.46 min)” value ([2]; SGF at 37° C., analysis time 0:45:33) was 11.42%, the “% ER-876400 (peak retention time: 1.46 min)” value ([2]; SGF at 37° C., analysis time 0:51:10) was 10.71% and the “% ER-876400 (peak retention time: 1.46 min)” value ([2]; SGF at 37° C., analysis time 0:56:48) was 8.87%. The “% ER-876400 (peak retention time: 1.46 min)” value ([2]; SGF at 37° C., analysis time 1:02:27) was 9.14%, the “% ER-876400 (peak retention time: 1.46 min)” value ([2]; SGF at 37° C., analysis time 1:08:07) was 8.81% and the “% ER-876400 (peak retention time: 1.46 min)” value ([2]; SGF at 37° C., analysis time 1:13:46) was 7.66%. The “% ER-876400 (peak retention time: 1.46 min)” value ([2]; SGF at 37° C., analysis time 1:19:23) was 4.05%, the “% ER-876400 (peak retention time: 1.46 min)” value ([2]; SGF at 37° C., analysis time 1:25:01) was 6.44% and the “% ER-876400 (peak retention time: 1.46 min)” value ([2]; SGF at 37° C., analysis time 1:30:38) was 5.92%. For the same compound, the “% ER-876400 (peak retention time: 1.46 min)” value ([2]; SGF at 37° C., analysis time 1:36:16) was 5.72%, the “% ER-876400 (peak retention time: 1.46 min)” value ([2]; SGF at 37° C., analysis time 1:41:53) was 5.69% and the “% ER-876400 (peak retention time: 1.46 min)” value ([2]; SGF at 37° C., analysis time 1:47:32) was 4.98%. The “% ER-876400 (peak retention time: 1.46 min)” value ([2]; SGF at 37° C., analysis time 1:53:10) was 4.51%, the “% ER-876400 (peak retention time: 1.46 min)” value ([2]; SGF at 37° C., analysis time 1:58:49) was 3.85% and the “% ER-876400 (peak retention time: 1.46 min)” value ([2]; SGF at 37° C., analysis time 2:04:28) was 3.59%. For the same compound, the “% ER-876400 (peak retention time: 1.46 min)” value ([2]; SGF at 37° C., analysis time 2:21:24) was 2.82%, the “% ER-876400 (peak retention time: 1.46 min)” value ([2]; SGF at 37° C., analysis time 2:49:37) was 1.52% and the “% ER-876400 (peak retention time: 1.46 min)” value ([2]; SGF at 37° C., analysis time 3:17:48) was 0.81%. The “% ER-876400 (peak retention time: 1.46 min)” value ([2]; SGF at 37° C., analysis time 3:23:28) was 0.62%, the “% ER-876400 (peak retention time: 1.46 min)” value ([2]; SGF at 37° C., analysis time 3:46:00) was 0.39% and the “% ER-876400 (peak retention time: 1.46 min)” value ([2]; SGF at 37° C., analysis time 3:51:38) was 0.25%. The “% ER-876400 (peak retention time: 1.46 min)” value ([2]; analysis time 0:00:00, initial sample in water) was 84.04% and the “time to degrade by 50%” value ([2]; simulated gastric fluid (pH 1.45) at 37° C.) was “less than 30 seconds”.
With `Nc1ncn([C@H]2C[C@H](O)[C@@H](CO)O2)c(=O)n1` [decitabine, 5-aza-2′-deoxycytidine] the “Estimated T1/2 of decitabine” value (cytidine deaminase (CDA); Decitabine in Tris-HCl buffer at 37° C. (absence of CDA)) was 9 h, the “Estimated T1/2 of decitabine” value (cytidine deaminase (CDA); Decitabine with CDA and ER-876437 in Tris-HCl buffer at 37° C.) was 9 h and the half-life at 0.2 mM (cytidine deaminase (CDA); Tris-HCl buffer, Decitabine in Tris-HCl buffer at 37° C. (absence of CDA)) was 9 h. For the same compound, the half-life at 0.2 mM (cytidine deaminase (CDA); cytidine deaminase (CDA) in Tris-HCl buffer, Decitabine with CDA and ER-876437 in Tris-HCl buffer at 37° C.) was 9 h, the half-life at 0.2 mM (cytidine deaminase (CDA); cytidine deaminase (CDA) in Tris-HCl buffer, Decitabine with CDA in Tris-HCl buffer at 37° C.) was ~0.383 h and the “difference in survival when dosed 7 or 8 hours apart” value (murine lymphoma L1210 [3]; 0.1 mg/kg decitabine PO twice a day, 4 days) was “no difference in survival”. The “Mean Survival (days) ± SD” value (murine lymphoma L1210 [3]; Veh/decitabine 0.1 mg/kg IP, twice a day (7 hours apart), 4 days) was 13.6 ± 0.55 days, the “Mean Liver wts (g) ± SD” value (murine lymphoma L1210 [3]; [8]) was 2.02 ± 0.31 g and the “Mean Spleen wts (g) ± SD” value (murine lymphoma L1210 [3]; [8]) was 0.36 ± 0.11 g. The “% ILS (Increased Life Span)” value (murine lymphoma L1210 [3]; [8]) was 47.50%, the “Mean Liver wts (g) ± SD” value (murine lymphoma L1210 [3]; [9]) was 1.81 ± 0.41 g and the “Mean Spleen wts (g) ± SD” value (murine lymphoma L1210 [3]; [9]) was 0.33 ± 0.06 g. The “Mean Survival (days) ± SD” value (murine lymphoma L1210 [3]; Veh/decitabine 0.1 mg/kg PO (8 hr.), twice a day (8 hours apart), 4 days) was 11.6 ± 0.55 days, the “% ILS (Increased Life Span)” value (murine lymphoma L1210 [3]; [9]) was 45.00% and the “Mean Survival (days) ± SD” value (murine lymphoma L1210 [3]; Veh/decitabine 0.1 mg/kg PO, twice a day (7 hours apart), 4 days) was 11.8 ± 0.84 days. For the same compound, the “Mean Survival (days) ± SD” value (murine lymphoma L1210 [4]; Veh/decitabine 0.1 mg/kg IP) was 13.4 ± 0.89 days, the “Mean Liver wts (g) ± SD” value (murine lymphoma L1210 [4]; [10]) was 2.17 ± 0.1 g and the “Mean Spleen wts (g) ± SD” value (murine lymphoma L1210 [4]; [10]) was 0.34 ± 0.04 g. For the same compound, the “Mean Survival (days) ± SD” value (murine lymphoma L1210 [4]; Veh/decitabine 0.1 mg/kg PO) was 11.2 ± 0.45 days and the “% ILS (Increased Life Span)” value (murine lymphoma L1210 [4]; Veh/decitabine 0.1 mg/kg PO, vs vehicle group) was 51.35%.
